Data on one molecule can be found in patent US20220041681A1 (MEDIMMUNE LIMITED, priority 2016, published 2022).

The series can be described thus: Phase 1 single-ascending dose study. The settings on record: human, plasma, subcutaneous, 300 μg.

Molecules are shown by their SMILES.

A word on the AUC(0-t): it is the area under the concentration-time curve up to a stated or last time point. Read a low AUC(0-t) as less exposure. The molecule `CCCCCCCCCCCCCCCC(=O)N[C@@H](CCC(=O)NCCCC[C@H](NC(=O)[C@H](CC(=O)O)NC(=O)[C@H](CO)NC(=O)C(NC(=O)[C@H](Cc1ccccc1)NC(=O)C(NC(=O)CNC(=O)[C@H](CCC(N)=O)NC(=O)[C@H](CO)NC(=O)[C@@H](N)Cc1cnc[nH]1)[C@@H](C)O)[C@@H](C)O)C(=O)N[C@@H](CO)C(=O)N[C@@H](CCC(=O)O)C(=O)N[C@@H](Cc1ccc(O)cc1)C(=O)N[C@@H](CC(C)C)C(=O)N[C@@H](CC(=O)O)C(=O)N[C@@H](CO)C(=O)N[C@@H](CCC(=O)O)C(=O)N[C@@H](CCCNC(=N)N)C(=O)N[C@@H](C)C(=O)N[C@@H](CCCNC(=N)N)C(=O)N[C@@H](CC(=O)O)C(=O)N[C@@H](Cc1ccccc1)C(=O)N[C@H](C(=O)N[C@@H](C)C(=O)N[C@@H](Cc1c[nH]c2ccccc12)C(=O)N[C@@H](CC(C)C)C(=O)N[C@@H](CCC(=O)O)C(=O)N[C@@H](C)C(=O)NCC(=O)NCC(=O)O)C(C)C)C(=O)O` (stereo partly shown) [Peptide G933] had an AUC(0-t) of 364 ng·h/mL.
